{"source": "patent US6710090B2", "about": "“Inhibitory or blocking agents of molecular generating and/or inducing functions” (priority 1994, dated 2004)", "key": {"[1]": {"test_system": "human blood (erythrocytes)", "assay": "Preservative effect on organs and tissues, stored human blood", "type": "cell-based", "conditions": "5 ml human blood, 4 μl of Yoshixol", "procedure": "After sampling 5 ml of human blood from a cubital vein, the blood sample was replaced into the vacuum tube with 10 ml capacity and was mixed in a gentle. The vacuum tubes were divided by two group; one group is nontreated and another treated with 4 μl of Yoshixol. Then, changes in morphological aspects of blood, which were stored at room temperature, were observed by a transmission type and scanning electron microscopes at 30 minutes, one hour and 1 month after the sampling. […] It was existed likely as a destroyed and aggregated mass. […] Many stomatocytes (lip-like erythrocyte) and echinocyte which is appeared at a lack of pyruvate kinase were observed."}, "[2]": {"test_system": "pseudomonas aeruginosa", "assay": "Histological observation of pseudomonas aeruginosa after treatment", "type": "cell-based", "conditions": "after treatment with Yoshixol"}, "[3]": {"test_system": "nitric oxide (NO)", "assay": "Involvement of nitric oxide, NG-methyl-L-arginine (NMLA) as blocking agent", "conditions": "4 μl of NMLA (1 mol) added; compared to Yoshixol alone", "procedure": "Recent interest has been focused recently in effects of nitric oxide (NO) which is generated in body. Such effects are anticancer effect, bactericidal effect, inhibitory effect of antigen-antibody reaction and cardiovascular effect. […] When 4 μl of NMLA (1 mol) was added in the each test sample with and without Yoshixol, blood aggregation effect, effect of fibrin formation and bactericidal effect of Yoshixol were decreased by 10-20% comparing to effect of Yoshixol alone."}, "[4]": {"assay": "Softening and flexibility effect on skin", "parameters": "species or system rabbit and dog", "conditions": "histology, hematoxylin eosin staining", "procedure": "In order to investigate changes of softening and flexibility on skin from rabbit and dog, each skin was is dipped in 5 ml of physiological saline with 10 μl of the test solution. This test solution was prepared from 88 ml of physiological saline with 2 ml of polyoxyethylene (20) sorbitan monoolate 1 (Wakou Jyunyaku Co.) that is identical to Tween80 (ICI Co.) as the basal solution of control. As the treated solution, 10 ml of Yoshixol was added in the basal solution. […] Surgical stitching by the needle was easily to be inserted and transfixed in the skin. […] And, the sample treated with Yoshixol was observed as the preparation which was made from a fresher sample by hematoxylin eosin staining in contrast to the skin sample treated with the test solution of control. Moreover, a similar observation on histological pictures of each sample was obtained even when each skin sample was thawed at 20° C. after storaging each sample at 4° C. in the refrigeration for one month."}, "[5]": {"test_system": "trypsin", "assay": "Function and configuration of trypsin, electrophoresis", "type": "biochemical", "conditions": "after treatment with Yoshixol 4 μl", "procedure": "Each physiological effect of trypsin (Wakou Jyunyaku Ltd.) and thrombin (Behlinger Manheim-Yamanouchi Co.) was investigated by electrophoresis. When trypsin was added to bovine albumin (Sigma Co. Saint Louis, Mo., USA) or myoglobin (Sigma Co. Saint Louis, Mo., USA), each primary structure of proteins which consist of albumin was altered by proteolytic action of trypsin. In addition, when thrombin was added to human fibrinogen (Behlinger Manheim-Yamanouchi Co.), a primary structure of proteins which consists of fibrinogen was not found."}, "[6]": {"test_system": "rejected reaction on heterogeneous skin implantation", "assay": "Heterogeneous skin implantation, recipient dogs given Yoshixol intravenously", "type": "in vivo, dog (rabbit skin)"}, "[7]": {"test_system": "HeLa cells", "assay": "Anti-cancer effect, cultured HeLa cells", "type": "cell-based", "conditions": "compared with keratinocytes treated with Yoshixol"}, "[8]": {"test_system": "synthesized dimers SEQ ID NO: 1 and SEQ ID NO: 2", "assay": "Molecular weight of new synthesized dimers with seven base pair, electrophoresis", "type": "biochemical", "conditions": "2 μl dimer solution with 2 μl of Yoshixol, 20% gel electrophoresis", "procedure": "DNA or RNA synthesis device (392-25 type, Perkin-Elmer Co.) was used and 7 base alignment (CTTCGGA) and (CTTCGGG) new synthesis dimer (SEQ ID NO: 1) (5′>CTTCGGACTTCGGA<3′) and (SEQ ID NO: 2) (5′>CTTCGGGCTTCGGG<3′) were synthesized. Then, an effect of Yoshixol on a change in molecular weight of the dimer was investigated. This pellet was dissolved on 50 μl of tris EDTA, and OD260 was measurement by 100 times attenuation so that concentration was turned into equality (5 ng/μl) by tris EDTA and distilled water. And, 4 μl of an adjusted synthesis dimer was labeled at 5′-terminal end of the dimer with 4 μl of ATP which was labeled by P32. In addition, after processing the dimer with 1 μl of polynucleokinase (TaKaRa, Tokyo) for 30 minutes by 37° C., the solution was heated at 70° C. for 5 minutes. Afterward, 65 μl of tris EDTA, 1 μl of glycogen and 190 μl of chilled ethanol were added and were mixed. And, it was centrifuged over 10 minute by 16,000 cpm. After taking the supernatant out, the pellet was made dry. Again, it was dissolved by 50 μl of tris EDTA and, 1 μl of the solution with radioactivity was mixed with urea (15 g), acrylamide (5.7 g), bisacrylamide (0.3 g), tris boric acid EDTA (3 ml), 10% ammoniumpersulfate (0.1 ml) and N, N, N, N-tetramethyldiamine (15 μl) to distilled water, so that the volume was made to 30 ml in total. […]"}, "[9]": {"biological_target": "thrombin (Homo sapiens, UniProt P00734)", "assay": "Composition of amino acids in thrombin", "type": "biochemical", "parameters": "1 ml of human thrombin before and after treatment with Yoshixol", "conditions": "did not exist before treatment; Yoshixol 4 μl", "procedure": "Changes in composition of amino acids were analyzed by use of 1 ml of human blood serum, 1 ml of human fibrinogen (concentration of 160 mg/dl), 1 ml of human thrombin before and after treatment with Yoshixol (4 μl). The total amino acids in the human blood serum which was treated with Yoshixol decreased by 41%. And, ratio of each composition was altered after the treatment so that as an example the concentration of phosphoserine increased about 20 times which level was from 7.2 picomole to 164.8 picomole."}, "[10]": {"test_system": "methitilin resistance staphylococcus aureus, MRSA (stock no. SCK18)", "type": "cell-based", "conditions": "for colony formation unit (CFU): 24-hour incubation at 37° C., initial 10^8, control 10^10"}}, "note": "Read-outs that look alike come from different tables or passages of the source.", "data": [{"smiles": "C=C1CC(C)(C)C=CC1=O", "note": "[Yoshixol, 4,4-dimethyl-6-methylene-2-cyclohexen-1-one]", "values": [{"measurement": "aggregation of erythrocytes", "setting": "[1]; room temperature", "result": "did not show an aggregation with fibrin networks"}, {"measurement": "cell membrane and intracellular organella of erythrocytes", "setting": "[1]; stored at room temperature", "result": "preserved normally over 1 month"}, {"measurement": "histological observation of the bacilli", "setting": "[2]", "result": "swelled as likely as a balloon and were ruptured"}, {"measurement": "decrease of blood aggregation effect, effect of fibrin formation and bactericidal effect of Yoshixol", "setting": "[3]", "result": "10-20%"}, {"measurement": "structure damages of each skin", "setting": "[4]", "result": "did not found histologically"}, {"measurement": "physiological function of trypsin to bovine albumin, myoglobin", "setting": "[5]", "result": "did not occur"}, {"measurement": "primary structure of trypsin (electrophoresis)", "setting": "[5]", "result": "did not show any electrophoretic changes"}, {"measurement": "epithelialization of wounded skin", "setting": "[6]; dogs, 10 μl/Kg per day intravenously for one week, 3 month after implantation", "result": "well epithelialization was found"}, {"measurement": "implantation of transplanted rabbit skin", "setting": "[6]; dogs, 10 μl/Kg per day of Yoshixol intravenously for one week, no antibiotics or immunosuppressants", "result": "implanted on the back of dog over 1 month without a rejection reaction and bacterial infection"}, {"measurement": "behaviors of adult mongrel dog", "setting": "[6]; intravenous administration, compared with before the treatment", "result": "became vigor, youthful and appetite-well"}, {"measurement": "structure between cells and cellular aspect", "setting": "[7]", "result": "observations similar to the above were found"}, {"measurement": "change in molecular weight of the synthesized dimers versus without treatment", "setting": "[8]", "result": "did not differ"}, {"measurement": "glutamic acid, taurine, methionine and aminoisobutylic acid in thrombin sample", "setting": "[9]", "result": "produced newly"}, {"measurement": "colony formation unit (CFU)", "setting": "[10]; 0.25 μl per 1 ml of culture medium", "result": "10^4 CFU"}, {"measurement": "colony formation unit (CFU)", "setting": "[10]; 2 μl per 1 ml of culture medium", "result": "10^2 CFU"}, {"measurement": "colony formation unit (CFU)", "setting": "[10]; 10 μl per 1 ml of culture medium", "result": "zero"}, {"measurement": "proliferation with evaporating component of Yoshixol", "setting": "[10]; 50 μl in the whole space of the schale, indirect contact, 24 hours, 37° C.", "result": "did not occur"}, {"measurement": "histological aspect of cell death, scanning electron microscopy", "setting": "[10]; after Yoshixol", "result": "separated to an individual bacterial cell"}]}]}
